In one assay the target is T1, HRV3C (Human rhinovirus 14, UniProt P03303).
T1 construct: 3CLpro and HRV3C was added using a Multidrop Combi
As to the kind of experiment: biochemical. Details: species or system HRV. The following applies: HRV3C, 30 mins preincubation, SAMDI-MS; read-out: HRV IC50 (bound).

Assay [1] concerns human beta-coronavirus OC43. As to the kind of experiment: OC43 coronavirus antiviral assay in HeLa cells (cytopathic effect, cell-titer-glo). The class given is cell-based. The following applies: Betacoronavirus 1, OC43, HeLa, 144 h, 6 days at 33° C., read-out: EC50 (class). A general note: Protection from cytopathic effect is a common read-out in antiviral testing.
Another assay concerns the target T2, SARS-Cov-2 3CLpro (Severe acute respiratory syndrome coronavirus 2, UniProt P0DTD1).
T2 construct: 3CLpro and HRV3C was added using a Multidrop Combi
As to the kind of experiment: biochemical. The conditions noted are these: 3CLpro, 30 mins preincubation, SAMDI-MS; read-out: SARS-Cov-2 IC50 (class).

The subject of assay [2] is B.1.1.7 lineage SARS-CoV-2. As to the kind of experiment: microbe, parasite or virus in culture. The class given is cell-based. The following applies: Severe acute respiratory syndrome coronavirus 2, 96 h; read-out: A549-dual_ACE2_TMPRSS2 (EC50).

Bounds are passed on as bounds.

T1 sequence (P03303 1538-1719): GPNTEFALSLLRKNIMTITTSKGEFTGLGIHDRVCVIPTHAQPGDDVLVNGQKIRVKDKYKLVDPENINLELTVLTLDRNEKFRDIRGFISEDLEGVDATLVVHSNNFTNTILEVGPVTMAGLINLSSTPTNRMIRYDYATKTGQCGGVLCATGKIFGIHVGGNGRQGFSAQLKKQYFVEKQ

For the compound `CC(C)([C@H](NC(=O)C(F)(F)F)C(=O)N1C[C@H]2[C@@H]([C@H]1C(=O)N[C@H](C#N)C[C@@H]1CCNC1=O)[C@H]1C=C[C@@H]2C1)C(F)(F)F` [Compound 102a, (1S,3aR,4S,7R,7aS)-N-((S)-1-cyano-2-((S)-2-oxopyrrolidin-3-yl)ethyl)-2-((S)-4,4,4-trifluoro-3,3-dimethyl-2-(2,2,2-trifluoroacetamido)butanoyl)-2,3,3a,4,7,7a-hexahydro-1H-4,7-methanoisoindole-1-carboxamide], the IC50 was over 500 nM at HRV3C and under 20 nM on SARS-Cov-2 3CLpro. Further, the EC50 in assay [1] and in assay [2] was under 100 nM throughout.
With `CC(C)(C)[C@H](NC(=O)C(F)(F)F)C(=O)N1C[C@H]2[C@@H]([C@H]1C(=O)N[C@H](C#N)C[C@@H]1CCNC1=O)[C@H]1C=C[C@@H]2C1O` (mixture of isomers) [Example 90, (1R,2R,3S,6S,7S)—N-[(1S)-1-cyano-2-[(3S)-2-oxopyrrolidin-3-yl]ethyl]-4-[(2S)-3,3-dimethyl-2-(2,2,2-trifluoroacetamido)butanoyl]-10-hydroxy-4-azatricyclo[5.2.1.0^{2,6}]dec-8-ene-3-carboxamide], the IC50 at HRV3C is over 10000 nM; on SARS-Cov-2 3CLpro it was 20 to 200 nM. In addition, in assay [2], the EC50 lay in the range of 1000 to 10000 nM.
Take `CC(C)(C)[C@H](NC(=O)C(F)(F)C(F)(F)F)C(=O)N1C[C@H]2[C@@H]([C@H]1C(=O)N[C@H](C#N)C[C@@H]1OCCNC1=O)[C@H]1C=C[C@@H]2C1` [Compound 115, (1S,3aR,4S,7R,7aS)-N-((S)-1-cyano-2-((S)-3-oxomorpholin-2-yl)ethyl)-2-((S)-3,3-dimethyl-2-(2,2,3,3,3 pentafluoropropanamido)butanoyl)-2,3,3a,4,7,7a-hexahydro-1H-4,7-methanoisoindole-1-carboxamide]: the IC50 is over 500 nM on HRV3C and under 20 nM at SARS-Cov-2 3CLpro. For the same compound, the EC50 in assay [1] and in assay [2] was under 100 nM throughout.
For `CC(C)(C)[C@H](NC(=O)C(F)(F)C(F)(F)F)C(=O)N1C[C@@H]2[C@H]3C[C@@H]([C@@H]2[C@H]1C(=O)N[C@H](C#N)C[C@@H]1CCNC1=O)[C@H](F)C3` [Example 87, (1S,3aR,4S,6R,7S,7aR)—N-((S)-1-cyano-2-((S)-2-oxopyrrolidin-3-yl)ethyl)-2-((S)-3,3-dimethyl-2-(2,2,3,3,3-pentafluoropropanamido)butanoyl)-6-fluorooctahydro-1H-4,7-methanoisoindole-1-carboxamide], the IC50 is over 500 nM at HRV3C and under 20 nM at SARS-Cov-2 3CLpro. In addition, the EC50 in assay [1] and in assay [2] was under 100 nM throughout.
In the case of `CC(C)(C)[C@H](NC(=O)C(F)(F)F)C(=O)N1C[C@@H]2[C@@H]3CC[C@@H](C3)[C@@H]2[C@H]1C(=O)N[C@H](C#N)CC1CC2(CC(F)(F)C2)NC1=O` (stereo partly drawn) [Compound 104, (1S,2S,3S,6R,7R)—N-[(1S)-1-cyano-2-{2,2-difluoro-6-oxo-5-azaspiro[3.4]octan-7-yl}ethyl]-4-[(2S)-3,3-dimethyl-2-(2,2,2-trifluoroacetamido)butanoyl]-4-azatricyclo[5.2.1.0^{2,6}]decane-3-carboxamide], the IC50 is over 500 nM at HRV3C and under 20 nM at SARS-Cov-2 3CLpro. Further, the values for the EC50 in assay [1] and in assay [2] were 100 to 1000 nM and under 100 nM, respectively.
On to `CC(C)(OCC1CC1)[C@H](NC(=O)C(F)(F)C(F)(F)F)C(=O)N1C[C@H]2[C@@H]([C@H]1C(=O)N[C@H](C#N)C[C@@H]1CCNC1=O)[C@H]1C=C[C@@H]2C1` [Compound 103], for which the IC50 on HRV3C is over 500 nM; on SARS-Cov-2 3CLpro it was under 20 nM. Besides, the EC50 in assay [1] and in assay [2] was under 100 nM in each case.
`CC(C)(C)[C@H](NC(=O)C(F)(F)F)C(=O)N1C[C@H]2[C@@H]([C@H]1C(=O)N[C@H](C#N)C[C@@H]1Oc3ccncc3NC1=O)[C@H]1C=C[C@@H]2C1(F)F` [Compound 111]: the half-maximal inhibitory concentration (IC50) was over 500 nM at HRV3C and under 20 nM at SARS-Cov-2 3CLpro. In addition, the EC50 was under 100 nM in assay [1] and 100 to 1000 nM in assay [2].
`N#C[C@H](C[C@@H]1CCNC1=O)NC(=O)[C@@H]1[C@@H]2[C@H](CN1C(=O)[C@H](CC1CCC1)NC(=O)C(F)(F)F)[C@@H]1C=C[C@H]2C1` [Example 95]: the IC50 is over 10000 nM on HRV3C and under 20 nM at SARS-Cov-2 3CLpro. Further, the EC50 in assay [1] and in assay [2] was under 100 nM throughout.
For `C[C@@H](OC1CC1)[C@H](NC(=O)C(F)(F)C(F)(F)F)C(=O)N1C[C@H]2[C@@H]([C@H]1C(=O)N[C@H](C#N)C[C@@H]1CCNC1=O)[C@H]1C=C[C@@H]2C1` [Compound 101, (1S,3aR,4S,7R,7aS)-N-((S)-1-cyano-2-((S)-2-oxopyrrolidin-3-yl)ethyl)-2-(O-cyclopropyl-N-(2,2,3,3,3-pentafluoropropanoyl)-L-threonyl)-2,3,3a,4,7,7a-hexahydro-1H-4,7-methanoisoindole-1-carboxamide], the results for the IC50 on HRV3C and on SARS-Cov-2 3CLpro were over 500 nM and under 20 nM, respectively. Further, the EC50 in assay [1] and in assay [2] was under 100 nM each time.
`C=C(C)C(C)(C)[C@H](NC(=O)C(F)(F)F)C(=O)N1C[C@H]2[C@@H]([C@H]1C(=O)N[C@H](C#N)C[C@@H]1CCNC1=O)[C@H]1C=C[C@@H]2C1` [Example 97]: the IC50 was over 10000 nM on HRV3C and under 20 nM at SARS-Cov-2 3CLpro. In addition, the EC50 in assay [1] and in assay [2] was under 100 nM in each case.
Consider `CC(C)(C)[C@H](NC(=O)C(F)(F)F)C(=O)N1C[C@H]2[C@@H]([C@H]1C(=O)N[C@H](C#N)C[C@@H]1CCNC1=O)[C@H]1CC[C@@H]2C1(F)F` [Example 92, (1S,3aS,4S,7R,7aR)—N-((S)-1-cyano-2-((S)-2-oxopyrrolidin-3-yl)ethyl)-2-((S)-3,3-dimethyl-2-(2,2,2-trifluoroacetamido)butanoyl)-8,8-difluorooctahydro-1H-4,7-methanoisoindole-1-carboxamide], for which the figures for the IC50 on HRV3C and at SARS-Cov-2 3CLpro were over 500 nM and 20 to 200 nM, respectively. For the same compound, the EC50 in assay [1] and in assay [2] was 100 to 1000 nM in each case.
`CC(C)(C)[C@H](NC(=O)C(F)(F)F)C(=O)N1C[C@H]2[C@@H]([C@H]1C(=O)N[C@H](C#N)C[C@@H]1CCNC1=O)[C@H]1C=C[C@@H]2C1=O` [Example 89, (1R,2R,3S,6S,7S)—N-[(1S)-1-cyano-2-[(3S)-2-oxopyrrolidin-3-yl]ethyl]-4-[(2S)-3,3-dimethyl-2-(2,2,2-trifluoroacetamido)butanoyl]-10-oxo-4-azatricyclo[5.2.1.0^{2,6}]dec-8-ene-3-carboxamide]: the values for the IC50 on HRV3C and on SARS-Cov-2 3CLpro were over 10000 nM and under 20 nM, respectively. In addition, the EC50 in assay [1] and in assay [2] was 100 to 1000 nM in each case.
Regarding `CC(C)(C)[C@H](NC(=O)CC(F)(F)F)C(=O)N1C[C@H]2[C@@H]([C@H]1C(=O)N[C@H](C#N)C[C@@H]1Oc3ccncc3NC1=O)[C@H]1C=C[C@@H]2C1` [Compound 110, (1S,3aR,4S,7R,7aS)-N-((S)-1-cyano-2-((S)-3-oxo-3,4-dihydro-2H-pyrido[4,3-b][1,4]oxazin-2-yl)ethyl)-2-((S)-3,3-dimethyl-2-(3,3,3-trifluoropropanamido)butanoyl)-2,3,3a,4,7,7a-hexahydro-1H-4,7-methanoisoindole-1-carboxamide], the IC50 on HRV3C is over 500 nM; at SARS-Cov-2 3CLpro it was under 20 nM. Moreover, the EC50 in assay [1] and in assay [2] was under 100 nM each time.
For the compound `CC(C)(C)[C@H](NC(=O)C(F)(F)F)C(=O)N1C[C@H]2[C@@H]([C@H]1C(=O)N[C@H](C#N)C[C@@H]1Oc3cnccc3NC1=O)[C@H]1C=C[C@@H]2C1` [Compound 113], the values for the IC50 at HRV3C and on SARS-Cov-2 3CLpro were over 500 nM and under 20 nM, respectively. Moreover, the EC50 in assay [1] and in assay [2] was under 100 nM throughout.
For the compound `CC(C)(C)[C@H](NC(=O)C(F)(F)F)C(=O)N1C[C@H]2[C@@H]([C@H]1C(=O)N[C@H](C#N)CC1C[C@H](C(F)(F)F)NC1=O)[C@H]1C=C[C@@H]2C1` (stereo partly drawn) [Compound 108, (1R,2S,3S,6R,7S)—N-[(1S)-1-cyano-2-[(5R)-2-oxo-5-(trifluoromethyl)pyrrolidin-3-yl]ethyl]-4-[(2S)-3,3-dimethyl-2-(2,2,2-trifluoroacetamido)butanoyl]-4-azatricyclo[5.2.1.0^{2,6}]dec-8-ene-3-carboxamide], the IC50 was over 500 nM on HRV3C and under 20 nM on SARS-Cov-2 3CLpro. The EC50 in assay [1] and in assay [2] was under 100 nM each time.
For `[2H]C([2H])([2H])C([C@H](NC(=O)C(F)(F)F)C(=O)N1C[C@H]2[C@@H]([C@H]1C(=O)N[C@H](C#N)C[C@@H]1CCNC1=O)[C@H]1C=C[C@@H]2C1)(C([2H])([2H])[2H])C([2H])([2H])[2H]` [Compound 124], the figures for the half-maximal inhibitory concentration (IC50) on HRV3C and on SARS-Cov-2 3CLpro were over 500 nM and under 20 nM, respectively.
`CC(C)(C)[C@H](NC(=O)C(F)(F)F)C(=O)N1C[C@H]2[C@@H]([C@H]1C(=O)N[C@H](C#N)C[C@@H]1OCCNC1=O)[C@H]1C=C[C@@H]2C1(F)F` [Compound 117]: the IC50 was over 500 nM on HRV3C and under 20 nM on SARS-Cov-2 3CLpro. Further, the EC50 in assay [1] and in assay [2] was under 100 nM in each case.
Consider `CC(C)(C)[C@H](NC(=O)C(F)(F)F)C(=O)N1C[C@H]2[C@@H]([C@H]1C(=O)N[C@H](C#N)C[C@@H]1OCC3(CC3)NC1=O)[C@H]1C=C[C@@H]2C1` [Compound 120], for which the half-maximal inhibitory concentration (IC50) on HRV3C is over 500 nM; on SARS-Cov-2 3CLpro it was under 20 nM. Further, the EC50 in assay [1] and in assay [2] was under 100 nM in each case.
In the case of `COC1(C(=O)N[C@H](C(=O)N2C[C@H]3[C@@H]([C@H]2C(=O)N[C@H](C#N)C[C@@H]2CCNC2=O)[C@H]2C=C[C@@H]3C2)C(C)(C)C)CC1` [Compound 126], the IC50 on HRV3C is over 500 nM; on SARS-Cov-2 3CLpro, 20 to 200 nM. Further, the EC50 in assay [1] and in assay [2] was 100 to 1000 nM each time.

As a reminder, the IC50 is the concentration that inhibits the measured activity by half. As a reminder, the EC50 is the concentration giving half of the maximal effect.

The record behind these values is patent publication US12252481B2, “Anti-viral compounds” (Aligos Therapeutics, Inc., priority 2021, dated 2025).
